Earlier results, collected in patent publication US12351592B2 (UNIVERSIDAD SANTIAGO DE CALI, priority 2019, dated 2025).

distribution volume (Vd) (in vivo): 654±358 I
access to erythrocytes (slow access): 5 % of the blood dose
Structure (SMILES): CN(C)C(=N)N=C(N)N [Metformin]
